For one assay, the species on record is Homo sapiens. The experiment in a line: Inhibition of human tryptase assessed as residual enzyme activity using chromogenic H-D-HHT-Ala-Arg-pNA 2AcOH as substrate at 10 uM pre-incubated for 10 mins measured for 30 mins by spectrophotometry relative to untreated control.
A further assay concerns the target T1, Chymase (Homo sapiens) (UniProt P23946).
T1 sequence (whole entry): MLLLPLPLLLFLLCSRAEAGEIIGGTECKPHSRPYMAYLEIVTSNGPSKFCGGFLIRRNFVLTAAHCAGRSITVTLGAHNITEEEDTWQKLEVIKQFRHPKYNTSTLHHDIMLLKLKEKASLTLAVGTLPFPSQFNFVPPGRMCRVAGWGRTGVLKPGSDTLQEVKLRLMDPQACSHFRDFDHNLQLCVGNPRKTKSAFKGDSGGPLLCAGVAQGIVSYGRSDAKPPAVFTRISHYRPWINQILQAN
Put plainly: Inhibition of human chymase assessed as residual enzyme activity using chromogenic N-succinyl-Ala-Ala-Pro-Phe p-nitroanilide as substrate at 10 uM pre-incubated for 10 mins by spectrophotometry relative to untreated control. The format is single protein.

The nature of assay [1]: Inhibition of bovine pancreatic trypsin using chromogenic N-alpha-bemzoyl-arginine ethyl ester hydrochloride as substrate pre-incubated for 10 mins by spectrophotometry. The arrangement: species or system Bos taurus.
Assay [2] in a line: Ratio of Ki for bovine pancreatic trypsin to Ki for human thrombin.

25 molecules from ChEMBL document CHEMBL1821717, “Synthesis and biochemical evaluation of triazole/tetrazole-containing sulfonamides against thrombin and related serine proteases” (Bioorg Med Chem Lett, 2011) can be followed below.

What is called Ki is the dissociation constant of the complex between target and ligand, obtained from inhibition or displacement. A high value points to a looser hold on the target.

Turning to `CS(=O)(=O)Nc1cccc(-c2nnn(Cc3cccc(Cl)c3)n2)c1`, the Ratio worked out at 0.97 in the assay filed under Homo sapiens and 0.95 on Chymase (Homo sapiens).

In the case of `O=S(=O)(/C=C/c1cccc(Cl)c1)Nc1cccc(OCc2cn(Cc3cc4ccccc4s3)nn2)c1`, in assay [1], affinity was put at a Ki of 729 µM.

In the case of `O=S(=O)(/C=C/c1cccc(C(F)(F)F)c1)Nc1cccc(-c2nnn(Cc3cccc(Cl)c3)n2)c1`, the Ratio in the assay filed under Homo sapiens was found to be 1; on Chymase (Homo sapiens), 0.97.

As for `O=S(=O)(/C=C/c1cccc(Cl)c1)Nc1cccc(OCc2cn(Cc3cccnc3)nn2)c1`, the Ratio in the assay filed under Homo sapiens is 0.99; at Chymase (Homo sapiens), 0.98.

With `COc1cccc(/C=C/S(=O)(=O)Nc2cccc(-c3nnn(Cc4cccc(Cl)c4)n3)c2)c1`, the Ratio in the assay filed under Homo sapiens and on Chymase (Homo sapiens) was 1 each time.

Consider `O=[N+]([O-])c1cccc(/C=C/S(=O)(=O)Nc2cccc(-c3nnn(Cc4cccc(Cl)c4)n3)c2)c1`, for which the Ratio in the assay listed under Homo sapiens is 1; at Chymase (Homo sapiens), 0.94.

For `O=S(=O)(/C=C/c1cccc(Cl)c1)Nc1cccc(OCc2cn(Cc3cc4ccccc4[nH]3)nn2)c1`, the Ratio in the assay filed under Homo sapiens was 0.99; at Chymase (Homo sapiens), 1.

In the case of `O=S(=O)(/C=C/c1cccc(Cl)c1)Nc1cccc(OCc2cn(Cc3nc4ccccc4s3)nn2)c1`, the Ratio in the assay listed under Homo sapiens was determined as 0.98; on Chymase (Homo sapiens), 1.

As to `Cc1cccc(/C=C/S(=O)(=O)Nc2cccc(-c3nnn(Cc4cccc(Cl)c4)n3)c2)c1`, the Ratio in the assay listed under Homo sapiens turned out to be 1; on Chymase (Homo sapiens) it was 0.99.

Take `O=[N+]([O-])c1cccc(/C=C/S(=O)(=O)Nc2cccc(OCc3cn(Cc4nc5ccccc5s4)nn3)c2)c1`: the Ratio in the assay listed under Homo sapiens was determined as 1; at Chymase (Homo sapiens), 0.95. The molecule further had an inhibition constant (Ki) in assay [1] of 187 µM. For the same molecule, in assay [2], the Ratio Ki was determined as 41.

For `Nc1cccc(/C=C/S(=O)(=O)Nc2cccc(OCc3cn(Cc4cc5ccccc5s4)nn3)c2)c1`, the Ratio in the assay listed under Homo sapiens is 0.99; at Chymase (Homo sapiens), 0.88. The molecule also yielded a Ki in assay [1] of 71 µM. The Ratio Ki in assay [2] came to 41.

On to `O=S(=O)(/C=C/c1cccc(F)c1)Nc1cccc(-c2nnn(Cc3cccc(Cl)c3)n2)c1`, for which the Ratio in the assay listed under Homo sapiens was found to be 0.97; on Chymase (Homo sapiens), 0.91.

In the case of `O=S(=O)(/C=C/c1cccc(Br)c1)Nc1cccc(-c2nnn(Cc3cccc(Cl)c3)n2)c1`, the Ratio in the assay listed under Homo sapiens is 1; at Chymase (Homo sapiens), 0.95.

With `O=[N+]([O-])c1cccc(/C=C/S(=O)(=O)Nc2cccc(OCc3cn(Cc4cccnc4)nn3)c2)c1`, the Ratio in the assay filed under Homo sapiens and on Chymase (Homo sapiens) was 1 in each case.

On to `O=S(=O)(/C=C/c1cccc(Cl)c1)Nc1cccc(OCc2cn(Cc3ccsc3Br)nn2)c1`, for which the Ratio turned out to be 0.98 in the assay filed under Homo sapiens and 0.96 at Chymase (Homo sapiens).

Consider `O=[N+]([O-])c1cccc(/C=C/S(=O)(=O)Nc2cccc(OCc3cn(Cc4cc5ccccc5s4)nn3)c2)c1`, for which the Ratio in the assay listed under Homo sapiens was found to be 1; at Chymase (Homo sapiens), 0.89. Further, the Ki in assay [1] is 122 µM. For the same molecule, in assay [2], the Ratio Ki turned out to be 71.

`O=S(=O)(/C=C/c1cccc(Cl)c1)Nc1cccc(OCc2cn(Cc3ccccc3)nn2)c1`: the Ratio stood at 0.97 in the assay filed under Homo sapiens and 1 on Chymase (Homo sapiens).

With `O=S(=O)(/C=C/c1cccc(F)c1)Nc1cccc(OCc2cn(Cc3cccnc3)nn2)c1`, the Ratio stood at 1 in the assay filed under Homo sapiens and 0.99 on Chymase (Homo sapiens).

As to `O=S(=O)(/C=C/c1cccc(Cl)c1)Nc1cccc(-c2nnn(Cc3cccc(Cl)c3)n2)c1`, the values for the Ratio in the assay filed under Homo sapiens and on Chymase (Homo sapiens) were 1 and 0.97, respectively.

For `O=S(=O)(/C=C/c1cccc(Cl)c1)Nc1cccc(OCc2cn(Cc3cccc(Cl)c3)nn2)c1`, the Ratio in the assay filed under Homo sapiens was found to be 0.95; on Chymase (Homo sapiens) it was 0.97.

On to `O=S(=O)(/C=C/c1cccc(C(F)(F)F)c1)Nc1cccc(OCc2cn(Cc3cccnc3)nn2)c1`, for which the Ratio in the assay listed under Homo sapiens was 0.96; at Chymase (Homo sapiens), 1.

Consider `O=S(=O)(/C=C/c1cccc(C(F)(F)F)c1)Nc1cccc(OCc2cn(Cc3cc4ccccc4s3)nn2)c1`, for which the Ratio is 0.97 in the assay listed under Homo sapiens and 0.99 at Chymase (Homo sapiens). This molecule also yielded a Ki in assay [1] of 127 µM. Besides, the Ratio Ki in assay [2] was 64.

On to `O=[N+]([O-])c1cccc(/C=C/S(=O)(=O)Nc2cccc(OCc3cn(Cc4cc5ccccc5[nH]4)nn3)c2)c1`, for which the Ratio in the assay listed under Homo sapiens amounted to 0.98; on Chymase (Homo sapiens) it was 1.

Turning to `O=S(=O)(/C=C/c1cccc(F)c1)Nc1cccc(OCc2cn(Cc3cc4ccccc4s3)nn2)c1`, the Ratio in the assay listed under Homo sapiens and at Chymase (Homo sapiens) was 0.95 each time. The affinity in assay [1], expressed as Ki, was 119 µM. Besides, in assay [2], the Ratio Ki was 48.

As to `O=S(=O)(/C=C/c1cccc(Cl)c1)Nc1cccc(OCc2cn(Cc3ccsc3)nn2)c1`, the Ratio turned out to be 0.95 in the assay filed under Homo sapiens and 0.99 on Chymase (Homo sapiens).
